Laboratory results from US20070135383A1, “Phospholipase inhibitors, including multi-valent phospholipase inhibitors, and use thereof, including as lumen-localized phospholipase inhibitors” (priority 2005, published 2007).
Read-outs that look alike come from different tables or passages of the source.

Tests used:
Assay in all cases: Fluorimetric PPyrPM assay for group 1B PLA2 inhibition (Example 12)
Assay type in all cases: biochemical
[1] = target: T1, mouse group 1B PLA2 (mps PLA2) (Mus musculus, UniProt Q9Z0Y2); conditions: for inhibition at 15 µM: read-out: ILYPSA % inhibition at 15 μM mps PLA2
T1 construct: made in house; host or cells: E. coli
From the text: (§1) In this example, a fluorimetric assay procedure was used to evaluate the indole and indole-related compounds of the invention as inhibitors of group 1B phospholipase A2 (PLA2) from human, mouse and porcine. A description of this assay is found in articles: Leslie, C C and Gelb, M H (2004) Methods in Molecular Biology “Assaying phospholipase A2 activity”, 284:229-242; Singer, A G, et al. (2002) Journal of Biological Chemistry “Interfacial kinetic and binding properties of the complete set of human and mouse groups I, II, V, X, and XII secreted phospholipases A2”, 277:48535-48549, which are incorporated herein as references.
(§2) In general, this assay used a phosphatidylmethanol substrate with a pyrene fluorophore on the terminal end of the sn-2 fatty acyl chain. Without being bound by theory, close proximity of the pyrenes from neighboring phospholipids in a phospholipid vesicle caused the spectral properties to change relative to that of monomeric pyrene. Bovine serum albumin was present in the aqueous phase and captured the pyrene fatty acid when it is liberated from the glycerol backbone owing to the PLA2-catalyzed reaction. However, a potent inhibitor can inhibit the liberation of pyrene fatty acid from the glycerol backbone. […] The effect of a given inhibitor and inhibitor concentration on human, mouse and porcine phospholipase was determined.
(§3) Recombinant human and mouse group 1B PLA2 were cloned and expressed in E. coli as insoluble inclusion bodies. The inclusion bodies were isolated and purified by sonicating cell pellet in lysis buffer (50 mM Tris-HCl pH 7.0, 250 mM NaCl, 0.5% Triton 100), centrifugation at 12,000×g, and washing three times in washing buffer (20 mM Tris-HCl pH 7.0, 250 mM NaCl, 0.5% Triton 100). Then the inclusion bodies were dissolved in dissolving buffer (50 mM Tris-HCl pH 7.0, 250 mM NaCl, 6 M Guanidine-HCl, 1 mM DTT) and dialyzed four times against 10 volumes of refolding buffer (20 mM Tris-HCl pH 7.0, 250 mM NaCl, 0.5M Guanidine-HCl, 5% (w/w) Glycerol, 2 mM reduced glutathione and 0.4 mM oxidized glutathione) at 4° C. The correctly refolded proteins were concentrated using Amicon Stirred cell under nitrogen pressure (<70 psi) and dialyzed against 10 volumes of 50 mM Tris-HCl pH 7.0, 250 mM NaCl and 5% (w/w) glycerol. Human and mouse group 1B PLA2 were further purified by High S ion exchange and gel filtration columns.
(§4) The following reagents and equipments were obtained from commercial vendors: • 1. Porcine group 1B phospholipase A2 • 2. 1-hexadecanoyl-2-(1-pyrenedecanoyl)-sn-glycero-3-phosphomethanol (PPyrPM) • 3. Bovine serum albumin (BSA, fatty acid free) • 4. 2-Amino-2-(hydroxymethyl)-1,3-propanediol, hydrochloride (Tris-HCl) • 5. Calcium chloride • 6. Potassium chloride • 7. Solvents: DMSO, toluene, isopropanol, ethanol • 8. Molecular Devices SPECTRAmax microplate spectrofluorometer • 9. Costar 96 well black wall/clear bottom plate
(§5) The following reagents were prepared: • 10. PPyrPM stock solution (1 mg/ml) in toluene:isopropanol (1:1) • 11. ILY104 inhibitor stock solution (10 mM) in DMSO • 12. 3% (w/v) bovine serum albumin (BSA) • 13. Stock buffer: 50 mM Tris-HCl, pH 8.0, 50 mM KCl and 1 mM CaCl2
(§6) The following procedure was performed to evaluate the inhibitory potency of the evaluated compounds. • 14. An assay buffer was prepared by adding 3 ml 3% BSA to 47 ml stock buffer. • 15. Solution A was prepared by adding serially diluted inhibitors to the assay buffer. Inhibitors were three-fold diluted in stock buffer in a series of 8 from 15 uM. • 16. Solution B was prepared by adding human, mouse or porcine PLA2 to the assay buffer. This solution was prepared immediately before use to minimize enzyme activity loss. • 17. Solution C was prepared by adding 30 ul PPyrPM stock solution to 90 ul ethanol, and then all 120 ul of PPyrPM solution was transferred drop-wise over approximately 1 min to the continuously stirring 8.82 ml assay buffer to form a final concentration of 4.2 uM PPyrPM vesicle solution. • 18. […]

[2] = target: T2, human group 1B PLA2 (hps PLA2) (Homo sapiens, UniProt P04054); conditions: for inhibition at 15 µM: read-out: ILYPSA % inhibition at 15 μM hps PLA2
T2 construct: made in house; host or cells: E. coli
From the text: as §1, §2, §3, §4, §5, §6

[3] = target: T3, porcine group 1B PLA2 (pps PLA2) (Sus scrofa, UniProt P00592); conditions: porcine pancreas secreted PLA2; read-out: ILYPSA IC50 pps PLA2
T3 construct: purchased
From the text: as §1, §2, §4, §5
The following procedure was performed to evaluate the inhibitory potency of the evaluated compounds. • 14. An assay buffer was prepared by adding 3 ml 3% BSA to 47 ml stock buffer. • 15. Solution A was prepared by adding serially diluted inhibitors to the assay buffer. Inhibitors were three-fold diluted in stock buffer in a series of 8 from 15 uM. • 16. Solution B was prepared by adding human, mouse or porcine PLA2 to the assay buffer. This solution was prepared immediately before use to minimize enzyme activity loss. • 17. Solution C was prepared by adding 30 ul PPyrPM stock solution to 90 ul ethanol, and then all 120 ul of PPyrPM solution was transferred drop-wise over approximately 1 min to the continuously stirring 8.82 ml assay buffer to form a final concentration of 4.2 uM PPyrPM vesicle solution. • 18. The SPECTRAmax microplate spectrofluorometer was set at 37° C. • 19. 100 ul of solution A was added to each inhibition assay well of a costar 96 well black wall/clear bottom plate • 20. 100 ul of solution B was added to each inhibition assay well of a costar 96 well black wall/clear bottom plate. • 21. 100 ul of solution C was added to each inhibition assay well of a costar 96 well black wall/clear bottom plate. • 22. The plate was incubated inside the spectrofluorometer chamber for 3 min. • 23. The fluorescence was read using an excitation of 342 nm and an emission of 395 nm.
Evaluated compounds were tested in duplicate and their values were averaged to plot the inhibition curve and calculate the IC50. Compared to uninhibited controls, lower fluorescent signal at an emission of 395 nm in test reactions evidenced inhibition of PLA2. […] Compounds initially found to be active were repeated to confirm their inhibitory activity. […]

[4] = mouse pancreas secreted PLA2, read-out: ILYPSA IC50 mps PLA2
[5] = human pancreas secreted PLA2, read-out: ILYPSA IC50 hps PLA2

T3 sequence (P00592 23-146): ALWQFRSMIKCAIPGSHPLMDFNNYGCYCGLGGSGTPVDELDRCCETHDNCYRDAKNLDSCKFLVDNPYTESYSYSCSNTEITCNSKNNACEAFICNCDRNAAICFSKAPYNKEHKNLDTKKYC
T2 sequence (P04054 23-148): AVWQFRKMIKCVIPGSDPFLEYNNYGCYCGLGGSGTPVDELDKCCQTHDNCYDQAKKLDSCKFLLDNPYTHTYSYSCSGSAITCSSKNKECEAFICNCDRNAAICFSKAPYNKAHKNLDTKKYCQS
T1 sequence (Q9Z0Y2 23-146): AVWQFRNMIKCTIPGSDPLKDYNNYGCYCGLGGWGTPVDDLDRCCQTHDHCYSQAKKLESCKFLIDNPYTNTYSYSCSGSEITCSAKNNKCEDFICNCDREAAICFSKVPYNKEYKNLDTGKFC

Compound | IC50 [1, 4] | IC50 [2, 5] | IC50 [3] | IC50 [1] | IC50 [2] | inhibition at 15 µM ([1]; mouse pancreas secreted PLA2) | inhibition at 15 µM ([2]; human pancreas secreted PLA2)
Cc1c(C(=O)C(N)=O)c2c(OCC(=O)O)cccc2n1Cc1ccc2ccccc2c1 [ILY-V-9] | 710 nM | 2110 nM | 60 nM |  |  |  | 
CCCCCCCCn1c(C)c(C(=O)C(N)=O)c2c(OCC(=O)O)nccc21 [ILY-II-8, (3-Aminooxalyl-2-methyl-1-octyl-1H-pyrrolo[3,2-c]pyridin-4-yloxy)-acetic acid] | 120 nM | 270 nM | 80 nM |  |  |  | 
CCCCCCCCn1c(C)c(C(=O)C(N)=O)c2c(OCC(=O)O)cccc21 [ILY-V-2] | 210 nM | 640 nM | 30 nM |  |  |  | 
Cc1c(C(=O)C(N)=O)c2c(O)cccc2n1CCCCCCCCCCCCSCCCCCCCCCCCCn1c(C)c(C(=O)C(N)=O)c2c(O)cccc21 [ILY-V-35] | 3650 nM | 1520 nM | 2090 nM |  |  |  | 
Cc1c(C(=O)C(N)=O)c2c(OCC(=O)O)cccc2n1CCCCCCCCCCCCSCCCCCCCCCCCCn1c(C)c(C(=O)C(N)=O)c2c(OCC(=O)O)cccc21 [IL-V-29, 2,2′-(1,1′-(12,12′-thiobis(dodecane-12,1-diyl))bis(3-(2-amino-2-oxoacetyl)-2-methyl-1H-indole-4,1-diyl))bis(oxy)diacetic acid] | 790 nM | 460 nM | 530 nM |  |  |  | 
Cc1c(C(=O)C(N)=O)c2c(OCC(=O)O)ccc([N+](=O)[O-])c2n1Cc1ccccc1 [ILY-IV-29] | 330 nM | 1290 nM | 20 nM |  |  |  | 
CCc1c(C(=O)C(N)=O)c2c(OCC(=O)O)nccc2n1Cc1ccccc1 [ILY-II-9, 2-(3-(2-amino-2-oxoacetyl)-1-benzyl-2-ethyl-1H-pyrrolo[3,2-c]pyridin-4-yloxy)acetic acid] | 350 nM | 1460 nM | 30 nM |  |  |  | 
Cc1c(C(=O)C(N)=O)c2c(OCC(=O)O)cccc2n1CCCCCCCCSCCCCSCCCCCCCCn1c(C)c(C(=O)C(N)=O)c2c(OCC(=O)O)cccc21 [ILY-V-23, 2,2′-(1,1′-(8,8′-(butane-1,4-diylbis(sulfanediyl))bis(octane-8,1-diyl))bis(3-(2-amino-2-oxoacetyl)-2-methyl-1H-indole-4,1-diyl))bis(oxy)diacetic acid] | 550 nM | 2160 nM | 1120 nM |  |  |  | 
Cc1c(C(=O)C(N)=O)c2c(OCC(=O)O)ccnc2n1Cc1ccccc1 [ILY-VII-1, 2-(1-Benzyl-4-yloxyacetic acid-2-methyl-1H-pyrrolo[2,3-b]pyridin-3-yl)-2-oxoacetamide] | 2140 nM | 13700 nM | 60 nM |  |  |  | 
CCC(Oc1nccc2c1c(C(=O)C(N)=O)c(C)n2Cc1ccccc1)C(=O)O (stereo not drawn) [ILY-II-11, 2-(3-Aminooxalyl-1-benzyl-2-methyl-1H-pyrrolo[3,2-c]pyridin-4-yloxy)-butyric acid] |  |  | < 20 nM | 30 nM | 480 nM |  | 
Cc1c(C(=O)C(N)=O)c2c(OCC(=O)NS(C)(=O)=O)cccc2n1Cc1ccccc1 [ILY-IV-21, 1-Benzyl-2-methyl-4-methanesulfonamidoylmethyloxy-1H-indol-3-glyoxylamide] | 320 nM | 1160 nM | < 20 nM |  |  |  | 
Cc1c(C(=O)C(N)=O)c2c(OCC(=O)O)cccc2n1CCCCCCCCCCCCSCCCCSCCCCCCCCCCCCn1c(C)c(C(=O)C(N)=O)c2c(OCC(=O)O)cccc21 [ILY-V-25, 2,2′-(1,1′-(12,12′-(Butane-1,4-diylbis(sulfanediyl))bis(dodecane-12,1-diyl))bis(3-(2-amino-2-oxoacetyl)-2-methyl-1H-indole-4,1-diyl))bis(oxy)diacetic acid] | 350 nM | 150 nM | 190 nM |  |  |  | 
Cc1c(C(=O)C(N)=O)c2c(OCC(=O)O)cccc2n1CCCCCCCCCCCCOc1ccccc1OCCCCCCCCCCCCn1c(C)c(C(=O)C(N)=O)c2c(OCC(=O)O)cccc21 [ILY-V-27, [3-Aminooxalyl-1-(12-{2-[12-(3-aminooxalyl-4-carboxymethoxy-2-methyl-indol-1-yl)-dodecyloxy]-phenoxy}-dodecyl)-2-methyl-1H-indol-4-yloxy]-acetic acid] | 200 nM | 150 nM | 150 nM |  |  |  | 
Cc1c(C(=O)C(N)=O)c2c(OC(F)C(=O)O)cccc2n1Cc1ccccc1 (stereo not drawn) [ILY-IV-24, (3-Aminooxalyl-1-benzyl-2-methyl-1H-indol-4-yloxy)-fluoro-acetic acid] |  |  | 1420 nM |  |  | 63.7% | 52.4%
Cc1c(C(=O)C(N)=O)c2c(OC(C(=O)O)C(C)C)cccc2n1Cc1ccccc1 (stereo not drawn) [ILY-IV-22, 2-(3-Aminooxalyl-1-benzyl-2-methyl-1H-indol-4-yloxy)-3-methyl-butyric acid] | < 20 nM | 70 nM | < 20 nM |  |  |  | 
Cc1c(C(=O)C(N)=O)c2c(OCC(=O)O)nccc2n1Cc1ccccc1-c1ccccc1 [ILY-II-4, (3-Aminooxalyl-1-biphenyl-2-ylmethyl-2-methyl-1H-pyrrolo[3,2-c]pyridin-4-yloxy)-acetic acid] |  |  | < 20 nM | 70 nM | 80 nM |  | 
Cc1c(C(=O)C(N)=O)c2c(OCC(=O)O)cccc2n1Cc1ccc(-c2ccccc2)cc1 [ILY-V-3] | 770 nM | 1260 nM | 210 nM |  |  |  | 
Cc1c(C(=O)C(N)=O)c2c(OCC(=O)O)c(Br)ccc2n1Cc1ccccc1 [ILY-IV-3, (3-Aminooxalyl-1-benzyl-5-bromo-2-methyl-1H-indol-4-yloxy)-acetic acid] |  |  | 5870 nM |  |  | 39.8% | 35.8%
Cc1c(C(=O)C(N)=O)c2c(OCC(=O)O)ccc(N)c2n1Cc1ccccc1 [ILY-IV-35] | 1740 nM | 8840 nM | 320 nM |  |  |  | 
